Laboratory results taken from ChEMBL document CHEMBL1132092, “Structure-activity relationship at the proximal phenyl group in a series of non-peptidyl N-type calcium channel antagonists” (Bioorg Med Chem Lett, 1999).

Molecular target: Voltage-dependent N-type calcium channel subunit alpha-1B (Homo sapiens, UniProt Q00975)
Experiment: Inhibition of N-type Voltage Sensitive Calcium Channel (VSCC) using IMR-32 assay
Assay type: functional

Sequence of Voltage-dependent N-type calcium channel subunit alpha-1B (Q00975 whole entry): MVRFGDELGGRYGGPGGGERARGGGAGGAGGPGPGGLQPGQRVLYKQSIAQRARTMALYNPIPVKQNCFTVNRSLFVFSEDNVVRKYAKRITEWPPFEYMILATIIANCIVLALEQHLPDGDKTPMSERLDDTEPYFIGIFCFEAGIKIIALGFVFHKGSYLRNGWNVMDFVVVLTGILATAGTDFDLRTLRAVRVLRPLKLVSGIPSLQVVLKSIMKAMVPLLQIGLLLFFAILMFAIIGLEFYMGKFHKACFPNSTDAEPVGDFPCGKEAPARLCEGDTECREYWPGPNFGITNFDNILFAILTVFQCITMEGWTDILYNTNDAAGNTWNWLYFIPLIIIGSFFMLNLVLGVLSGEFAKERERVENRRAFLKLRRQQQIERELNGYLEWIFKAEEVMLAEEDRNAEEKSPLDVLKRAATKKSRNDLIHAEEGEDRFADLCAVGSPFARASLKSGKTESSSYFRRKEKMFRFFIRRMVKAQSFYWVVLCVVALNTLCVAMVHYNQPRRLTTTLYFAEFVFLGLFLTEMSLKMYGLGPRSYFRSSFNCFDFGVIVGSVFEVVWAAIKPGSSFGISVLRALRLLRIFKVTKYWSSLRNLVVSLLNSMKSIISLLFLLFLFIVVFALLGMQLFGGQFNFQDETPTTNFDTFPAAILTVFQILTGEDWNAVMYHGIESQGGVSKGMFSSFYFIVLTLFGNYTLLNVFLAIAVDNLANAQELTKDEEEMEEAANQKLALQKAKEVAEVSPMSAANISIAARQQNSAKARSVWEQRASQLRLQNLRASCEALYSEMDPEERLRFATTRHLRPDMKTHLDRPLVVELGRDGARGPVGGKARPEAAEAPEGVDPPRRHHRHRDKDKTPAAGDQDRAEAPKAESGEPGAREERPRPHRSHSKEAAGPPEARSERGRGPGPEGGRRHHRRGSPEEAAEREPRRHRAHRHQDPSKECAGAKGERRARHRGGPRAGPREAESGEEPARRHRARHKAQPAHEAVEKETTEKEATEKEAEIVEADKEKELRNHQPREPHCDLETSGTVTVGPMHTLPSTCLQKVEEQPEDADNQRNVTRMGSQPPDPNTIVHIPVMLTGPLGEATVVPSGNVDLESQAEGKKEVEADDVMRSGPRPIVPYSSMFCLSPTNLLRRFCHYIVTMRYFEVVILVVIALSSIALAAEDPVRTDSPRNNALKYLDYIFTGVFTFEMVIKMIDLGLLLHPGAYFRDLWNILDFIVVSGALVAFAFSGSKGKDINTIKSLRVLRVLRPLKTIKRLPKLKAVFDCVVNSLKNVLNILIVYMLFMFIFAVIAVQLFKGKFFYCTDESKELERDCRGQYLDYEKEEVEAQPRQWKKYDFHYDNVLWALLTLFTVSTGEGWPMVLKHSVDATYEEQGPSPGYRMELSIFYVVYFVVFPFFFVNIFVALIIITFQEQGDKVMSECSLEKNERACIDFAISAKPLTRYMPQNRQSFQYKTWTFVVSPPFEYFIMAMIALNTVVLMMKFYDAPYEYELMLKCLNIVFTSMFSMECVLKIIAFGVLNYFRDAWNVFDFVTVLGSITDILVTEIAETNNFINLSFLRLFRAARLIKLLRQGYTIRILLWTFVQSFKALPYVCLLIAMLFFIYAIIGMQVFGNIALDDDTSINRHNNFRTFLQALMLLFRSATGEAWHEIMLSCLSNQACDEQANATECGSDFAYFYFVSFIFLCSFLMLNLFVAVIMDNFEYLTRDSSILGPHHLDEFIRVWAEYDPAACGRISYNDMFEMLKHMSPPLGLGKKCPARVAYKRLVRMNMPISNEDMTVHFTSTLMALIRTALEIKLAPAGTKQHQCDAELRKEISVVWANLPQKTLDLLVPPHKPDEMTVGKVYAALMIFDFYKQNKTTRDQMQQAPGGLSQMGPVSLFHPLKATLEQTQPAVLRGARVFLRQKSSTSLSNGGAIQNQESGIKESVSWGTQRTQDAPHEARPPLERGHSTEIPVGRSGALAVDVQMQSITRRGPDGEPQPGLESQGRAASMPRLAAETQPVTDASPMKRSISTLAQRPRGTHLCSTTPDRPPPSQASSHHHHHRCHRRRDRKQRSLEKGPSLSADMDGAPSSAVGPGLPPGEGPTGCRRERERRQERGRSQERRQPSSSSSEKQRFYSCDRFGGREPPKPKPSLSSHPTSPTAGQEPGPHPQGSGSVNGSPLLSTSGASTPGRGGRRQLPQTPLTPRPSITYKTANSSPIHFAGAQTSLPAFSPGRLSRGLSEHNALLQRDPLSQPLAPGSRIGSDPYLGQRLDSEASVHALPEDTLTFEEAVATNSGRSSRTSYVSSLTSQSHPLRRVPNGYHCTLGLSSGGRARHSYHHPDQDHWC

SMILES | IC50
CC(C)CCN(c1ccc(NCc2cnc[nH]2)cc1)C1CCN(C(=O)[C@H](CC(C)C)NC(=O)N2CCCCCC2)CC1 | 120 µM
CC(C)=CCN(c1ccccc1)C1CCN(C(=O)[C@H](CC(C)C)NC(=O)N2CCCCCC2)CC1 | 1 µM
CC(C)CCN(c1ccc(OCc2ccccc2)cc1)C1CCN(C(=O)[C@H](CC(C)C)NC(=O)N2CCCCCC2)CC1 | 0.19 µM

Continued, values first:

IC50 | SMILES
0.34 µM | CC(C)=CCN(c1ccc(OCc2ccccc2)cc1)C1CCN(C(=O)[C@H](CC(C)C)NC(=O)N2CCCCCC2)CC1
0.67 µM | CC(C)=CCN(c1ccc(CCc2ccccc2)cc1)C1CCN(C(=O)[C@H](CC(C)C)NC(=O)N2CCCCCC2)CC1
1.1 µM | CC(C)CCN(c1ccc(O)cc1)C1CCN(C(=O)[C@H](CC(C)C)NC(=O)N2CCCCCC2)CC1
